Experimental data: patent US20110065669A1, “OXAZOLOBENZIMIDAZOLE DERIVATIVES” (Merck Sharp & Dohme Corp., priority 2008, published 2011)

The molecules below were run against T1, recombinant human mGluR2 (Homo sapiens, UniProt Q14416) (assay: FLIPR assay (Ca2+ mobilization), potentiation of the mGluR2 receptor). Conditions: CHO dhfr- cells expressing human mGluR2 and Gα16; potentiation after EC20 glutamate (900 nM).
T1 construct: expressed in transfected cells
Assay type: cell-based
Procedure: Inhibition constants are determined as follows. The compounds of the present invention may be tested in a […] (FLIPR) based assay. This assay is a common functional assay to monitor Ca^2+ mobilization in whole cells expressing recombinant receptor coupled with a promiscuous G-protein. CHO dhfr-cells stably expressing recombinant human mGluR2 and Gα16 loaded with Fluo-4 AM (Invitrogen, Carlsbad Calif.) are treated with dose responses of compounds and the Ca^2+ response is monitored on a FLIPR384 (Molecular Devices, Sunnydale Calif.) for agonist activity. The potentiation response is monitored after a subsequent addition of an EC20 concentration of glutamate (900 nM). The maximum calcium response at each concentration of compound for agonist or potentiation are plotted as dose responses and the curves are fitted with a four parameters logistic equation giving EC50 and Hill coefficient using the iterative non linear curve fitting software program.

T1 sequence (Q14416 19-872): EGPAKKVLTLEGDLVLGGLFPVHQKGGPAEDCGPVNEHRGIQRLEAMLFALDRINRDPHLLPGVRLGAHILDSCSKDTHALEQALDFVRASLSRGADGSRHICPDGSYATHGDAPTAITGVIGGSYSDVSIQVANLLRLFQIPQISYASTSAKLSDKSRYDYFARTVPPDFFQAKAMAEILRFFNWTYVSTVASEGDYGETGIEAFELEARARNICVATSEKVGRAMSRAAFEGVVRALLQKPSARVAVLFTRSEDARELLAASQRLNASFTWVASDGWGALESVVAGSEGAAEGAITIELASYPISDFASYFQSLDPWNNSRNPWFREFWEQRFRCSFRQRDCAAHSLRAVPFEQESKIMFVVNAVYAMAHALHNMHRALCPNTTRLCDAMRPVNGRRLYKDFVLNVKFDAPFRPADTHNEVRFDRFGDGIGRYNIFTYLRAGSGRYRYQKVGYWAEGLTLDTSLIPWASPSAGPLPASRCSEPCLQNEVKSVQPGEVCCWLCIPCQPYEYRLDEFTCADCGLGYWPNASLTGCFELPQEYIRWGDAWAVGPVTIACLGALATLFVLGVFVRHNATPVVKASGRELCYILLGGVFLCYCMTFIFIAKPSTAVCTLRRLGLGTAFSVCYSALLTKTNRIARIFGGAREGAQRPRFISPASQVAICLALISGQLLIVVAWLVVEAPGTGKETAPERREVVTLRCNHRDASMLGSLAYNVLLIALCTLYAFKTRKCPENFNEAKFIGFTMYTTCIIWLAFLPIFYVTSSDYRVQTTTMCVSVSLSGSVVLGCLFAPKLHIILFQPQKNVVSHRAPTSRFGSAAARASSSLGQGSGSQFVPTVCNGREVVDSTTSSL

| EC50 [nM] | SMILES |
| --- | --- |
| 12 | CC(C)(c1ccc(OC[C@@H]2Cn3c(nc4ccccc43)O2)cc1)C(F)(F)F [Example 3-5, (2S)-2-{[4-(2,2,2-trifluoro-1,1-dimethylethyl)phenoxy]methyl}-2,3-dihydro[1,3]oxazolo[3,2-a]benzimidazole] |
| 235 | c1ccc(OC[C@@H]2Cn3c(nc4ccccc43)O2)cc1 [Example 3-20, (2S)-2-(phenoxymethyl)-2,3-dihydro[1,3]oxazolo[3,2-a]benzimidazole, reference compound] |
| 11 | CC(C)(C)c1ccc(OC[C@@H]2Cn3c(nc4ccccc43)O2)cc1 [Example 1-4, (2S)-2-[(4-tert-butylphenoxy)methyl]-2,3-dihydro[1,3]oxazolo[3,2-a]benzimidazole] |

Second part, the molecule before the results:

| SMILES | EC50 [nM] |
| --- | --- |
| CC(=O)c1cccc(OC[C@@H]2Cn3c(nc4ccccc43)O2)c1 [Example 1-5, 1-{3-[(2S)-2,3-dihydro[1,3]oxazolo[3,2-a]benzimidazol-2-ylmethoxy]phenyl}ethanone] | 522 |
| Clc1cccc(OC[C@@H]2Cn3c(nc4ccccc43)O2)c1 [Example 3-9, (2S)-2-[(3-chlorophenoxy)methyl]-2,3-dihydro[1,3]oxazolo[3,2-a]benzimidazole] | 37 |
| Cn1nccc1-c1ccc(OC[C@@H]2Cn3c(nc4ccccc43)O2)cc1 [Example 2-1, (2S)-2-{[4-(1-methyl-1H-pyrazol-5-yl)phenoxy]methyl}-2,3-dihydro[1,3]oxazolo[3,2-a]benzimidazole] | 137 |
| C[Si](C)(C)c1ccc(OC[C@@H]2Cn3c(nc4ccccc43)O2)cc1 [Example 4-1, (2S)-2-{[4-(trimethylsilyl)phenoxy]methyl}-2,3-dihydro[1,3]oxazolo[3,2-a]benzimidazole] | 27 |
